Read-outs that look alike come from different tables or passages of the source. Values belong to the molecule of their own block, whether it stands above or below them.
Columns and labels:
[1] = tested on: SU-DHL-4; assay: CellTiter-Glo (CTG) antiproliferative assay, 5-day; assay type: cell-based; details: for antiproliferative activity (in words): SU-DHL-4, CellTiter-Glo
Experimental: To evaluate the activity of both Compound 1 and Compound 2 in DLBCL cells, a CellTiter-Glo (CTG) assay was performed to measure the antiproliferative activity.

[2] = molecular target: cereblon (CRBN) (Homo sapiens, UniProt Q96SW2); assay: Cereblon binding TR-FRET ligand competition assay; details: 10 to 20 minutes, n=5
Experimental: To investigate whether Compound 1 and its R-enantiomer Compound 2 could bind to cereblon, a short duration (10 to 20 minutes) ligand competition assay was used.

[3] = tested on: SU-DHL-2 cells; assay: Western blot of substrate degradation by each enantiomer, short time-course; assay type: cell-based; details: SU-DHL-2, higher concentrations and longer exposure
Experimental: Pure samples of each enantiomer were tested for cellular degradation of substrate proteins measured over a short time-course (FIG. 16). SU-DHL-2 cells were treated for 1, 2, and 6 hours with vehicle control (0.1% DMSO), Compound 1 (1, 10, 100 nM), or Compound 2 (1, 10, 100 nM). Western blot analysis was used to evaluate the extent of degradation of the protein substrates Aiolos, Ikaros, and ZFP91. Compound 1 inhibited Aiolos, Ikaros, and ZFP91 in as early as 1 hour of treatment with as little as 1 nM.

[4] = molecular target: Ikaros (Homo sapiens, UniProt Q13422+Q96SW2); assay: ePL-tagged substrate degradation kinetics in DF15 cells (enantiomer comparison); assay type: cell-based; parameters: expressed in transfected cells; host or cells: DF15 cells; Ikaros Y-constant: scale not given here; details: for DC50: read-out: Ikaros EC50
Experimental: (§1) In a second assay, DF15 cell lines expressing ePL-tagged target protein substrates were used as a model system to monitor protein degradation at 0.75, 1, 1.5, 3, 4, and 24 hours over a concentration range from 1 pM to 10 μM. The proteins evaluated were Ikaros (FIG. 17), Aiolos, and ZFP91. Compound 1 and Compound 2 were both able to degrade the substrate proteins at all time points (Table 9). In a further assay, additional time points were included to monitor the effect of treatment with Compound 1 and Compound 2.
(§2) The depth of substrate protein degradation described by the Y-constant was also measured in this assay against a negative control luciferase inhibitor (CC1071297, Y-constant=0).

[5] = molecular target: T1, Aiolos (Homo sapiens, UniProt Q96SW2+Q9UKT9); assay: as above; assay type: cell-based; parameters: Aiolos Y-constant: scale not given here; details: for DC50: read-out: Aiolos EC50
T1 construct: expressed in transfected cells; host or cells: DF15 cells
Experimental: as §1, §2

[6] = molecular target: T2, ZFP91 (Homo sapiens, UniProt Q96JP5+Q96SW2); assay: as above; assay type: cell-based; parameters: ZFP91 Y-constant: scale not given here; details: for DC50: read-out: ZFP91 EC50
T2 construct: expressed in transfected cells; host or cells: DF15 cells
Experimental: as §1, §2

[7] = tested on: OCI-Ly10; assay: 5-day viable cell number and apoptosis (7-AAD exclusion/Annexin V flow cytometry); assay type: cell-based; details: Homo sapiens; OCI-Ly10 cells (Table 3); read-out: IC50
Description: (§3) The DLBCL panel includes seven cell lines classified as activated B-cell (ABC) subtype, thirteen cell lines classified as the germinal center B-cell (GCB) subtype, and three cell lines classified as primary mediastinal B-cell lymphoma (PMBL). […] The translocation of MYC, BCL6, or BCL2 to an IG locus usually leads to high levels of mRNA and protein due to the active transcription driven by a constitutively active IG promoter. […] Expressions of CRBN protein and known substrates, Ikaros, Aiolos, and ZFP91 were also evaluated (FIG. 1, panels B and C).
(§4) The panel of cell lines were treated with increasing doses of compounds for five days, at which time the number of viable cells was measured and the amount of apoptosis was determined by 7-AAD exclusion and Annexin V staining using flow cytometry.

[8] = tested on: KARPAS-422; assay: as above; assay type: cell-based; details: Homo sapiens; KARPAS-422 cells (Table 3); read-out: IC50
Description: as §3, §4

[9] = tested on: DB; assay: as above; assay type: cell-based; details: Homo sapiens; DB cells (Table 3)
Description: as §3, §4

[10] = tested on: RIVA; assay: as above; assay type: cell-based; details: RIVA cells (Table 3); read-out: IC50
Description: as §3, §4

[11] = tested on: SU-DHL-16; assay: as above; assay type: cell-based; details: Homo sapiens; SU-DHL-16 cells (Table 3); read-out: IC50
Description: as §3, §4

[12] = tested on: RC-K8; assay: as above; assay type: cell-based; details: Homo sapiens, RCK8; RC-K8 cells (Table 3); read-out: IC50
Description: as §3, §4

[13] = tested on: OCI-LY-7; assay: as above; assay type: cell-based; details: Homo sapiens, OCI-Ly7; OCI-LY-7 cells (Table 3); read-out: IC50
Description: as §3, §4

[14] = tested on: HT; assay: as above; assay type: cell-based; details: Homo sapiens; HT cells (Table 3); read-out: IC50
Description: as §3, §4

[15] = tested on: WSU-DLCL2; assay: as above; assay type: cell-based; details: Homo sapiens, WSUDLCL2; WSU-DLCL2 cells (Table 3); read-out: IC50
Description: as §3, §4

[16] = tested on: Farage; assay: as above; assay type: cell-based; details: Farage cells (Table 3); read-out: IC50
Description: as §3, §4

[17] = tested on: SU-DHL-10; assay: as above; assay type: cell-based; details: Homo sapiens, SU-DHL10; SU-DHL-10 cells (Table 3); read-out: IC50
Description: as §3, §4

[18] = tested on: SU-DHL-4; assay: as above; assay type: cell-based; details: Homo sapiens; SU-DHL-4 cells (Table 3); read-out: IC50
Description: as §3, §4

[19] = tested on: SU-DHL-2; assay: as above; assay type: cell-based; details: Homo sapiens; SU-DHL-2 cells (Table 3); read-out: IC50
Description: as §3, §4

[20] = tested on: KARPAS-1106P; assay: as above; assay type: cell-based; details: Homo sapiens; KARPAS-1106P cells (Table 3); read-out: IC50
Description: as §3, §4

[21] = tested on: U2932; assay: as above; assay type: cell-based; details: Homo sapiens; U2932 cells (Table 3); read-out: IC50
Description: as §3, §4

[22] = tested on: Pfeiffer; assay: as above; assay type: cell-based; details: Homo sapiens; Pfeiffer cells (Table 3)
Description: as §3, §4

[23] = tested on: SU-DHL-8; assay: as above; assay type: cell-based; details: Homo sapiens; SU-DHL-8 cells (Table 3); read-out: IC50
Description: as §3, §4

Structure (SMILES): O=C1CCC(N2C(=O)c3cccc(NCc4ccc(CN5CC(N6CCOCC6)C5)cc4F)c3C2=O)C(=O)N1 (racemic) [Compound 3, 2-(2,6-Dioxopiperidin-3-yl)-4-((2-fluoro-4-((3-morpholinoazetidin-1-yl)methyl)benzyl)amino)isoindoline-1,3-dione]
antiproliferative activity (in words) [1]: Potent antiproliferative activity

IC50 [2]: 10.2 ± 1 µM
Ikaros Y-constant ([4]; 0.75 hours): 47.0
DC50 ([4]; 0.75 hours): 39.7 nM
Ikaros Y-constant ([4]; 1 hour): 34.4
DC50 ([4]; 1 hour): 27 nM
Ikaros Y-constant ([4]; 1.5 hours): 15.3
DC50 ([4]; 1.5 hours): 22.5 nM
Ikaros Y-constant ([4]; 3 hours): 7.3
DC50 ([4]; 3 hours): 8.88 nM
Ikaros Y-constant ([4]; 4 hours): 5.5
DC50 ([4]; 4 hours): 7.31 nM
Ikaros Y-constant ([4]; 24 hours): 2.4
DC50 ([4]; 24 hours): 0.7 nM
IC50 ([1]; Homo sapiens, 120 h, SU-DHL-4, 5-day assay, n = 6): 32 nM
Aiolos Y-constant ([5]; 0.75 hours): 54
DC50 ([5]; 0.75 hours): 38 nM
Aiolos Y-constant ([5]; 1 hour): 37
DC50 ([5]; 1 hour): 24 nM
Aiolos Y-constant ([5]; 1.5 hours): 15
DC50 ([5]; 1.5 hours): 17 nM
Aiolos Y-constant ([5]; 3 hours): 3.5
DC50 ([5]; 3 hours): 10 nM
Aiolos Y-constant ([5]; 4 hours): 3.5
DC50 ([5]; 4 hours): 7.3 nM
Aiolos Y-constant ([5]; 24 hours): 3.8
DC50 ([5]; 24 hours): 5.3 nM
ZFP91 Y-constant ([6]; 0.75 hours): 41
DC50 ([6]; 0.75 hours): 29 nM
ZFP91 Y-constant ([6]; 1 hour): 22
DC50 ([6]; 1 hour): 25 nM
ZFP91 Y-constant ([6]; 1.5 hours): 10
DC50 ([6]; 1.5 hours): 16 nM
ZFP91 Y-constant ([6]; 3 hours): 4.6
DC50 ([6]; 3 hours): 4.5 nM
ZFP91 Y-constant ([6]; 4 hours): 4.1
DC50 ([6]; 4 hours): 2.6 nM
ZFP91 Y-constant ([6]; 24 hours): 2.5
DC50 ([6]; 24 hours): 0.35 nM
Structure (SMILES): O=C1CC[C@@H](N2C(=O)c3cccc(NCc4ccc(CN5CC(N6CCOCC6)C5)cc4F)c3C2=O)C(=O)N1 [Compound 2, (R)-2-(2,6-dioxopiperidin-3-yl)-4-((2-fluoro-4-((3-morpholinoazetidin-1-yl)methyl)benzyl)amino)isoindoline-1,3-dione]
expression of Aiolos, Ikaros, and ZFP91 [3]: decreased expression
antiproliferative activity (in words) [1]: Potent antiproliferative activity

IC50 [7]: 200 µM
IC50 [8]: 75 µM
IC50 [11]: 21 µM
IC50 [13]: 1.01 mM
IC50 [17]: 454 µM
IC50 [18]: 145 µM
IC50 [19]: 355 µM
IC50 [20]: 200 µM
IC50 [23]: 548 µM
Structure (SMILES): CC1(C)CCC(CN2CCN(c3ccc(C(=O)NS(=O)(=O)c4ccc(NCC5CCOCC5)c([N+](=O)[O-])c4)c(Oc4cnc5[nH]ccc5c4)c3)CC2)=C(c2ccc(Cl)cc2)C1 [Venetoclax, 4-(4-{[2-(4-chlorophenyl)-4,4-dimethylcyclohex-1-en-1-yl]methyl}piperazin-1-yl)-N-({3-nitro-4-[(tetrahydro-2H-pyran-4ylmethyl)amino]phenyl}sulfonyl)-2-(1H-pyrrolo[2,3-b]pyridin-5-yloxy)benzamide, reference compound]
IC50 [9]: 82 µM
IC50 [10]: 5 µM
IC50 [12]: 609 µM
IC50 [14]: 644 µM
IC50 [15]: 215 µM
IC50 [16]: 560 µM
IC50 [21]: 230 µM
IC50 [22]: 432 µM

Reference: patent publication US20210116454A1, “METHODS FOR TREATING A HEMATOLOGICAL CANCER AND THE USE OF COMPANION BIOMARKERS FOR 2-(2,6-DIOXOPIPERIDIN-3-YL)-4-((2-FLUORO-4-((3-MORPHOLINOAZETIDIN-1-YL)METHYL)BENZYL)AMINO)ISOINDOLINE-1,3-DIONE” (CELGENE CORPORATION, priority 2019, published 2021)
